{"source": "patent US20040170996A1", "about": "“Cytotoxic T-Lymphocyte antigen-4 or interleukin-10 polymorphisms as predictors of response to therapeutic intervention” (priority 2001, published 2004)", "origin": "cited, not measured here", "system": "interleukin-10 production", "conditions": "several in vitro studies", "data": [{"compound": "NC(=O)c1ncn([C@@H]2O[C@H](CO)[C@@H](O)[C@H]2O)n1", "note": "[Ribavirin, ribavirin]", "values": [{"measurement": "Effect on interleukin-10 production", "value": "downregulate interleukin-10 production"}]}]}
